Measured values published in patent US20200017496A1 (priority 2017, published 2020).

Columns and labels:
Test in all cases: MIC of compounds alone and combined with antibacterials, broth microdilution (CLSI)
Type in all cases: cell-based
[1] = tested on: Citrobacter koseri (CKR) isolates; settings: for MIC ATB in combination: AF1 @ 4 μg/mL
In short: (§1)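 Inoculum 5·10^5 CFU/mL (final), log phase, ca-MHB; 16-20 h, 35° C, ambient air. MIC = lowest conc. with no visible growth; ATB MIC read at each compound level.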

[2] = tested on: Salmonella typhimurium (STY) isolates; settings: STY S3371
In short: as §1

[3] = tested on: Enterobacter cloacae (ECL) isolates
In short: as §1

[4] = tested on: Providencia rettgeri (PRE) isolates
In short: as §1

[5] = tested on: Citrobacter freundii (CFR) isolates
In short: as §1

[6] = tested on: Klebsiella oxytoca (KOX) isolates; settings: for MIC ATB in combination: AF1 @ 4 μg/mL
In short: as §1

SMILES: C=CC1=C(C(=O)O)N2C(=O)[C@@H](NC(=O)/C(=N\O)c3csc(N)n3)[C@H]2SC1 [CDR, Cefdinir]
- MIC ATB in combination ([1]; CKO ROU): 2 µg/mL
- MIC ATB in combination ([1]; CKO UFR149): 32 µg/mL
- MIC ATB in combination ([1]; CKO UFR150): 4 µg/mL
- MIC ([1]; Citrobacter koseri, strain CKO ROU (TEM-1, SHV-12, CTX-M-15, OXA-1, OXA-48), ATB alone): > 256 µg/mL
- MIC ([1]; Citrobacter koseri, strain CKO UFR150 (TEM-1, OXA-48), ATB alone): > 256 µg/mL
- MIC ATB in combination ([2]; AF1 @ 4 μg/mL): <=0.25 μg/mL
- MIC ATB in combination ([3]; ECL 190310, AF1 @ 4 μg/mL): 64 µg/mL
- MIC ATB in combination ([3]; ECL 190408, AF1 @ 4 μg/mL): <=0.25 μg/mL
- MIC ATB in combination ([3]; ECL 200138, AF1 @ 4 μg/mL): 64 µg/mL
- MIC ATB in combination ([3]; ECL 200322, AF1 @ 4 μg/mL): 4 µg/mL
- MIC ATB in combination ([3]; ECL 260253, AF1 @ 4 μg/mL): 32 µg/mL
- MIC ATB in combination ([3]; ECL 260323, AF1 @ 4 μg/mL): 64 µg/mL
- MIC ATB in combination ([3]; ECL 260508, AF1 @ 4 μg/mL): 2 µg/mL
- MIC ATB in combination ([3]; ECL NEM146383, AF1 @ 4 μg/mL): 32 µg/mL
- MIC ATB in combination ([3]; ECL P99, AF1 @ 4 μg/mL): 16 µg/mL
- MIC ATB in combination ([3]; ECL UFR12, AF1 @ 4 μg/mL): 4 µg/mL
- MIC ATB in combination ([3]; ECL UFR13, AF1 @ 4 μg/mL): 16 µg/mL
- MIC ATB in combination ([3]; ECL UFR14, AF1 @ 4 μg/mL): 32 µg/mL
- MIC ATB in combination ([3]; ECL UFR60, AF1 @ 4 μg/mL): 8 µg/mL
- MIC ATB in combination ([3]; ECL UFR70, AF1 @ 4 μg/mL): 4 µg/mL
- MIC ATB in combination ([3]; ECL UFR84, AF1 @ 4 μg/mL): 64 µg/mL
- MIC ATB in combination ([3]; ECL UFR85, AF1 @ 4 μg/mL): 8 µg/mL
- MIC ATB in combination ([3]; ECL UFR194, AF1 @ 4 μg/mL): 2 µg/mL
- MIC ATB in combination ([3]; ECL UFR200, AF1 @ 4 μg/mL): 2 µg/mL
- MIC ATB in combination ([3]; strain ECL UFR195, antibacterial combined with AF1 @ 4 μg/mL): 4 µg/mL
- MIC ATB in combination ([3]; strain ECL UFR196, antibacterial combined with AF1 @ 4 μg/mL): 16 µg/mL
- MIC ATB in combination ([3]; strain ECL UFR197, antibacterial combined with AF1 @ 4 μg/mL): 8 µg/mL
- MIC ATB in combination ([3]; strain ECL UFR198, antibacterial combined with AF1 @ 4 μg/mL): 32 µg/mL
- MIC ATB in combination ([4]; PRE UFR99, AF1 @ 4 μg/mL): >128 µg/mL
- MIC ATB in combination ([4]; strain PRE UFR236, antibacterial combined with AF1 @ 4 μg/mL): 2 µg/mL
- MIC ATB in combination ([5]; CFR UFR10, AF1 @ 4 μg/mL): <=0.25 μg/mL
- MIC ATB in combination ([5]; CFR UFR11, AF1 @ 4 μg/mL): 128 µg/mL
- MIC ATB in combination ([5]; CFR UFR83, AF1 @ 4 μg/mL): >128 µg/mL
- MIC ATB in combination ([5]; CFR UFR146, AF1 @ 4 μg/mL): 0.5 µg/mL
- MIC ATB in combination ([5]; CFR UFR248, AF1 @ 4 μg/mL): 0.5 µg/mL
- MIC ATB in combination ([5]; CFR UFR249, AF1 @ 4 μg/mL): <=0.25 μg/mL
- MIC ATB in combination ([5]; CFR UFR250, AF1 @ 4 μg/mL): <=0.25 μg/mL
- MIC ATB in combination ([5]; strain CFR UFR253, antibacterial combined with AF1 @ 4 μg/mL): <=0.25 μg/mL
- MIC ATB in combination ([5]; strain CFR UFR254, antibacterial combined with AF1 @ 4 μg/mL): <=0.25 μg/mL
- MIC ATB in combination ([6]; KOX UFR21): 8 µg/mL
- MIC ATB in combination ([6]; KOX UFR173): 0.5 µg/mL
- MIC ATB in combination ([6]; KOX UFR223): <=0.25 μg/mL
- MIC ATB in combination ([6]; KOX UFR224): <=0.25 μg/mL
- MIC ([6]; Klebsiella oxytoca, strain KOX UFR21 (TEM-1, CTX-M-15, OXA-48), ATB alone): > 256 µg/mL
- MIC ([6]; Klebsiella oxytoca, strain KOX UFR223 (SHV-11, OXA-48), ATB alone): > 256 µg/mL
- MIC ([6]; Klebsiella oxytoca, strain KOX UFR224 (CTX-M-15, OXA-48), ATB alone): > 256 µg/mL

SMILES: NC(=O)[C@@H]1CC[C@@H]2CN1C(=O)N2OC(F)(F)C(=O)[O-].[Na+] [EA1]
- MIC ([1]; CKO ROU, alone): 16 µg/mL
- MIC ([1]; CKO UFR149, alone): 16 µg/mL
- MIC ([1]; CKO UFR150, alone): >32 µg/mL
- MIC ([2]; alone): >32 µg/mL
- MIC ([3]; ECL 2185D, alone): 16 µg/mL
- MIC ([3]; ECL 190310, alone): 32 µg/mL
- MIC ([3]; ECL 190408, alone): >128 µg/mL
- MIC ([3]; ECL 200138, alone): >32 µg/mL
- MIC ([3]; ECL 200322, alone): 16 µg/mL
- MIC ([3]; ECL 260033, alone): 16 µg/mL
- MIC ([3]; ECL 260253, alone): >32 µg/mL
- MIC ([3]; ECL 260323, alone): >32 µg/mL
- MIC ([3]; ECL 260508, alone): >32 µg/mL
- MIC ([3]; ECL NEM146383, alone): 32 µg/mL
- MIC ([3]; ECL P99, alone): 16 µg/mL
- MIC ([3]; ECL UFR12, alone): 32 µg/mL
- MIC ([3]; ECL UFR13, alone): 32 µg/mL
- MIC ([3]; ECL UFR14, alone): >32 µg/mL
- MIC ([3]; ECL UFR60, alone): 32 µg/mL
- MIC ([3]; ECL UFR70, alone): 32 µg/mL
- MIC ([3]; ECL UFR84, alone): >32 µg/mL
- MIC ([3]; ECL UFR85, alone): >32 µg/mL
- MIC ([3]; ECL UFR194, alone): >32 µg/mL
- MIC ([3]; ECL UFR200, alone): >32 µg/mL
- MIC ([3]; strain ECL UFR195, compound alone): >32 µg/mL
- MIC ([3]; strain ECL UFR196, compound alone): >32 µg/mL
- MIC ([3]; strain ECL UFR197, compound alone): 16 µg/mL
- MIC ([3]; strain ECL UFR198, compound alone): >32 µg/mL
- MIC ([4]; PRE UFR99, alone): 32 µg/mL
- MIC ([4]; strain PRE UFR236, compound alone): >32 µg/mL
- MIC ([5]; CFR UFR10, alone): >32 µg/mL
- MIC ([5]; CFR UFR11, alone): 16 µg/mL
- MIC ([5]; CFR UFR83, alone): >32 µg/mL
- MIC ([5]; CFR UFR146, alone): 64 µg/mL
- MIC ([5]; CFR UFR248, alone): >32 µg/mL
- MIC ([5]; CFR UFR249, alone): >32 µg/mL
- MIC ([5]; CFR UFR250, alone): >32 µg/mL
- MIC ([5]; strain CFR UFR253, compound alone): 32 µg/mL
- MIC ([5]; strain CFR UFR254, compound alone): 32 µg/mL
- MIC ([6]; KOX UFR21, alone): >32 µg/mL
- MIC ([6]; KOX UFR173, alone): >32 µg/mL
- MIC ([6]; KOX UFR223, alone): >32 µg/mL
- MIC ([6]; KOX UFR224, alone): >32 µg/mL
